Measurements: patent US20210198277A1, “AMINE-SUBSTITUTED ARYL OR HETEROARYL COMPOUNDS” (Epizyme, Inc., priority 2016, published 2021)

What follows are compounds tested against T1, EHMT2 (Homo sapiens, UniProt Q96KQ7) (assay: MDA-MB-231 H3K9me2 in-cell Western assay (EHMT2 ICW)). Details: Table III; MDA-MB-231 H3K9me2 in-cell Western; read-out: EHMT2 ICW (IC50 μM).
T1 construct: host or cells: MDA-MB-231
T1 sequence (Q96KQ7 1-1210): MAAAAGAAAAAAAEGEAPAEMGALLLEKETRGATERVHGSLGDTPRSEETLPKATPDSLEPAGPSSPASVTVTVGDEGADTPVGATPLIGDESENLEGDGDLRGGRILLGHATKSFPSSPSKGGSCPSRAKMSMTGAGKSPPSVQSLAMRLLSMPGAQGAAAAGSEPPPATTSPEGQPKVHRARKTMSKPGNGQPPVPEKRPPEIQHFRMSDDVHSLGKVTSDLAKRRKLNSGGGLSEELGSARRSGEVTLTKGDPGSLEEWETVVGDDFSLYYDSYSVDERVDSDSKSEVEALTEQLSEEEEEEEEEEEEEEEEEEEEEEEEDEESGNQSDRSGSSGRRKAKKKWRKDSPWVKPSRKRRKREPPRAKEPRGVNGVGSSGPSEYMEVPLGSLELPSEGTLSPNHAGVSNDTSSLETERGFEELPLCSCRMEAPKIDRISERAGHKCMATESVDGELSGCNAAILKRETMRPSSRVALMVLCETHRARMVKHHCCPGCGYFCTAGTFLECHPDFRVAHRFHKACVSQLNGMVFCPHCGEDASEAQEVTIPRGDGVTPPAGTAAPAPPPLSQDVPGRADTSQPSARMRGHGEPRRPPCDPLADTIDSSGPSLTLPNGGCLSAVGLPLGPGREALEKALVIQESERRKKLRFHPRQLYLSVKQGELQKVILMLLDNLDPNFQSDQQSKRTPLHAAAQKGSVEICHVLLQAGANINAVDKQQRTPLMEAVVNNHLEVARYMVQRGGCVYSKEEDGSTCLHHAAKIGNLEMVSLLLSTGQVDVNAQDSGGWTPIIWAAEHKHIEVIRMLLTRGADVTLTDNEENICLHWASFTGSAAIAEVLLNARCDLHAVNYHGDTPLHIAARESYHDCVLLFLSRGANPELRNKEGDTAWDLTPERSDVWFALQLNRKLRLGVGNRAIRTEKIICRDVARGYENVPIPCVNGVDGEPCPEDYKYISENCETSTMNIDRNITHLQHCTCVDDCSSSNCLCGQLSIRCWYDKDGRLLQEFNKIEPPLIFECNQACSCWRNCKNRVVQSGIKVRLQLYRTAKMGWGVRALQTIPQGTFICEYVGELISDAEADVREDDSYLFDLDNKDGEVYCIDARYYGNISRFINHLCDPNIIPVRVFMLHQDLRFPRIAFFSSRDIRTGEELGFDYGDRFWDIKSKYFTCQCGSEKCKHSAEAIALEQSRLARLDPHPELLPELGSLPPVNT
Format: cell-based
Outline: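 For 48 h at 37 °C, breast cancer MDA-MB-231 cells were incubated with compound, then fixed and immunostained for H3K9me2, with DRAQ5 used for normalisation. Each well's signal ratio yielded percent inhibition, and IC50 values were derived by fitting a four-parameter curve.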

For `CNc1cc(C)nc(Nc2ccc(OC)c(OCC3CN(CC4CC4)C3)c2)n1` [Compound 445, N^2-(3-((1-(cyclopropylmethyl)azetidin-3-yl)methoxy)-4-methoxyphenyl)-N^4,6-dimethylpyrimidine-2,4-diamine], which IC50 is on record?
The IC50 was 1 to 10 µM.

`CNc1cc(C)nc(Nc2ccc(OC)c(OCC3CCN(C4CCC4)C3)c2)n1` (centres unmarked) [Compound 446, N^2-(3-((1-cyclobutylpyrrolidin-3-yl)methoxy)-4-methoxyphenyl)-N^4,6-dimethylpyrimidine-2,4-diamine] was tested. Which IC50 did it give?
Its IC50 is 0.1 to 1 µM.

How did the IC50 turn out when `COc1ccc(Nc2nc(C)cc(O)n2)cc1OCCCN1CCCC1` [Compound 447, 2-((4-methoxy-3-(3-(pyrrolidin-1-yl)propoxy)phenyl)amino)-6-methylpyrimidin-4-ol] was run?
Its IC50 is greater than 10 µM.

`COc1ccc(Nc2cc(C)nc(O)n2)cc1OCCCN1CCCC1` [Compound 448, 4-((4-methoxy-3-(3-(pyrrolidin-1-yl)propoxy)phenyl)amino)-6-methylpyrimidin-2-ol] was tested. Which IC50 did it give?
The IC50 was greater than 10 µM.

`CNc1cc(C)nc(Nc2ccc(OC)c(OCC3CCN(C4COC4)C3)c2)n1` (centres unmarked) [Compound 449, N^2-(4-methoxy-3-((1-(oxetan-3-yl)pyrrolidin-3-yl)methoxy)phenyl)-N^4,6-dimethylpyrimidine-2,4-diamine] was tested. Which IC50 did it give?
The IC50 was 0.1 to 1 µM.

How did the IC50 turn out when `CNc1cc(N2CCCC2)nc(Nc2ccc(OC)c(OCCCN3CCCC3)c2)n1` [Compound 450, N^2-(4-methoxy-3-(3-(pyrrolidin-1-yl)propoxy)phenyl)-N^4-methyl-6-(pyrrolidin-1-yl)pyrimidine-2,4-diamine] was run?
The IC50 was greater than 10 µM.

How did the IC50 turn out when `COc1ccc(Nc2nc(C)cc(NCC3CCOCC3)n2)cc1OCC1CCN(C)C1` (centres unmarked) [Compound 451, N^2-(4-methoxy-3-((1-methylpyrrolidin-3-yl)methoxy)phenyl)-6-methyl-N^4-((tetrahydro-2H-pyran-4-yl)methyl)pyrimidine-2,4-diamine] was run?
The IC50 was 1 to 10 µM.

With `CNc1cc(C)nc(Nc2ccc(OC)c(OCC3CCCO3)c2)n1` (centres unmarked) [Compound 452, N^2-(4-methoxy-3-((tetrahydrofuran-2-yl)methoxy)phenyl)-N^4,6-dimethylpyrimidine-2,4-diamine] as the compound, how does the IC50 read?
Its IC50 is greater than 10 µM.
